Results reported in article PMC6688997 (Nature Communications, 2019).

Tests used:
Experiment in all cases: Kinase assay, 1 mM ATP
Assay type in all cases: biochemical
ARG = ARG (Homo sapiens, UniProt P42684)
Method: (§1) An off-chip mobility shift assay was performed by Carna Biosciences, Inc. (Kobe, Japan), according to their product instructions. […] The IC50 values were estimated according to the four-parameter logistic model.

AXL = target: T1, AXL (Homo sapiens, UniProt P30530)
T1 construct: purchased Carna Biosciences
Method: as §1

AurA = AurA (Homo sapiens, UniProt O14965)
Chain of AurA (O14965 whole entry): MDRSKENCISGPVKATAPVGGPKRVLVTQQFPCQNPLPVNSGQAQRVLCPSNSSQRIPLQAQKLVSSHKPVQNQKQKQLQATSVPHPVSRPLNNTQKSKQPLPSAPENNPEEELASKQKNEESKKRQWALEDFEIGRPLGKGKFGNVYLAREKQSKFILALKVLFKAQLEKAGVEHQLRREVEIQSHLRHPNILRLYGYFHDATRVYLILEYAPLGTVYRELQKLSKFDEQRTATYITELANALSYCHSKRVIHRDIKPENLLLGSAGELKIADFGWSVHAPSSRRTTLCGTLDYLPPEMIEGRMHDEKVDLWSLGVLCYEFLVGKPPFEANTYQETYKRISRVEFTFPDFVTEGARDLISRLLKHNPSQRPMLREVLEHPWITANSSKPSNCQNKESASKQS
Method: as §1

CDK2/CycA2 = CDK2/CycA2 (Homo sapiens, UniProt P24941)
Method: as §1

CDK4/CycD3 = CDK4/CycD3 (Homo sapiens, UniProt P11802)
Chain of CDK4/CycD3 (P11802 whole entry): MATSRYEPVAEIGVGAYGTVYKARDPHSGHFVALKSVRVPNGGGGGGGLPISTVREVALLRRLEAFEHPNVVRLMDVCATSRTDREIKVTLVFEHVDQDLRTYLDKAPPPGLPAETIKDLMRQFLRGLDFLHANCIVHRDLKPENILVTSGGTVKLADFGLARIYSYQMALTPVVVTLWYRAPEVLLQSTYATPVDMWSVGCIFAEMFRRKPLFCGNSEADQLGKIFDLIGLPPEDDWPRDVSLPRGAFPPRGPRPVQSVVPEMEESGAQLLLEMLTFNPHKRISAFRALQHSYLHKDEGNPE
Chain of CDK4/CycD3 (P30281 whole entry partner): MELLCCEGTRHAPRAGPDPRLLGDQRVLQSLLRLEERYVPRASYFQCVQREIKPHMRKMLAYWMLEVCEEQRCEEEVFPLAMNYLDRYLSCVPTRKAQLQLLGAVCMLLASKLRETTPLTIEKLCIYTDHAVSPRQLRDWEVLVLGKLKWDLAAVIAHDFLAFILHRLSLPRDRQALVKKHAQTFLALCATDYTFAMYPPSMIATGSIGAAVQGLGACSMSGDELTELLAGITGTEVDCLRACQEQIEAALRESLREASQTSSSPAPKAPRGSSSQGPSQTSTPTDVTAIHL
Method: as §1

CDK6/CycD3 = CDK6/CycD3 (Homo sapiens, UniProt Q00534)
Method: as §1

CDK7/CycH/MAT1 = CDK7/CycH/MAT1 (Homo sapiens, UniProt P50613)
Method: as §1

CHK1 = CHK1 (Homo sapiens, UniProt O14757)
Chain of CHK1 (O14757 whole entry): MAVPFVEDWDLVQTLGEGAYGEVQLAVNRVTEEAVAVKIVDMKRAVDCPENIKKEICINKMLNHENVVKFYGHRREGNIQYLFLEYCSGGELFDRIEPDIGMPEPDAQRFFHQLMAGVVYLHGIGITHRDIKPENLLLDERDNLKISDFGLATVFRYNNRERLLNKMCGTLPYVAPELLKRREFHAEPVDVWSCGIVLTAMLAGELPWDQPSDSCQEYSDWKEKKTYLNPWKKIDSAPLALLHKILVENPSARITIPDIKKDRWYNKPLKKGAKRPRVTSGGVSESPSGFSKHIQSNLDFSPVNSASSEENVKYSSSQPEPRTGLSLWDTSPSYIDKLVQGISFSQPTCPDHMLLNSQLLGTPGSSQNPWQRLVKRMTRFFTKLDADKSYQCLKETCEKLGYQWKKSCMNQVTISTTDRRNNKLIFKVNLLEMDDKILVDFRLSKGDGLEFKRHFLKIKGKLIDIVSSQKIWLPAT
Method: as §1

CK1ε = CK1ε (Homo sapiens, UniProt P49674)
Method: as §1

CK2α1/β = CK2α1/β (Homo sapiens, UniProt P68400)
Method: as §1

CLK2 = CLK2 (Homo sapiens, UniProt P49760)
Method: as §1

DYRK1B = DYRK1B (Homo sapiens, UniProt Q9Y463)
Chain of DYRK1B (Q9Y463 whole entry): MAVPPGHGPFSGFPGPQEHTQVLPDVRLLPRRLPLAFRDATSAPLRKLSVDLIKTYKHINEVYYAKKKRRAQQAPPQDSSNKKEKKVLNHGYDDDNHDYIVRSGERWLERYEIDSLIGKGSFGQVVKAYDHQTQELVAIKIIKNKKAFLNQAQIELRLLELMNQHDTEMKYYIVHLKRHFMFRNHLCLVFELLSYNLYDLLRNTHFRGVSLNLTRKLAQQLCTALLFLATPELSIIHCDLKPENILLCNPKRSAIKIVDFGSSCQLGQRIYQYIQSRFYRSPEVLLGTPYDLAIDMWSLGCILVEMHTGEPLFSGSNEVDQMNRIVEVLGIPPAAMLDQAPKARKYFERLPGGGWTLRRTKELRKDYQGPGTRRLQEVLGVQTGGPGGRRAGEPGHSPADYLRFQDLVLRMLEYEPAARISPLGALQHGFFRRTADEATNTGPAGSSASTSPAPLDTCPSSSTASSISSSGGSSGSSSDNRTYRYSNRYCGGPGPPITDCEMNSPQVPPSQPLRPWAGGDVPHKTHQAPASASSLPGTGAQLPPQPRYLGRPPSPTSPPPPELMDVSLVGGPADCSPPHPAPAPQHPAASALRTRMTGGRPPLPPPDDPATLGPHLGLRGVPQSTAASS
Method: as §1

EGFR(T790M/L858R) = target: T2, EGFR(T790M/L858R) (Homo sapiens, UniProt P00533, L858R/T790M)
T2 construct: purchased Carna Biosciences
Method: as §1

EGFR(d746-750) = target: T3, EGFR(d746-750) (Homo sapiens, UniProt P00533, DEL746-750)
T3 construct: purchased Carna Biosciences
Method: as §1

EPHA3 = EPHA3 (Homo sapiens, UniProt P29320)
Method: as §1

EPHA5 = EPHA5 (Homo sapiens, UniProt P54756)
Method: as §1

Erk1 = Erk1 (Homo sapiens, UniProt P27361)
Method: as §1

FER = target: T4, FER (Homo sapiens, UniProt P16591)
T4 construct: purchased Carna Biosciences
Method: as §1

FGFR1 = target: T5, FGFR1 (Homo sapiens, UniProt P11362)
T5 construct: purchased Carna Biosciences
Method: as §1

FGFR2 = FGFR2 (Homo sapiens, UniProt P21802)
Method: as §1

FLT3 = target: T6, FLT3 (Homo sapiens, UniProt P36888)
T6 construct: purchased Carna Biosciences
Method: as §1

GSK3α = GSK3α (Homo sapiens, UniProt P49840)
Method: as §1

HCK = HCK (Homo sapiens, UniProt P08631)
Method: as §1

IGF1R = target: T7, IGF1R (Homo sapiens, UniProt P08069)
T7 construct: purchased Carna Biosciences
Method: as §1

JAK1 = target: T8, JAK1 (Homo sapiens, UniProt P23458)
T8 construct: purchased Carna Biosciences
Method: as §1

JNK2 = JNK2 (Homo sapiens, UniProt P45984)
Method: as §1

KDR = target: T9, KDR (Homo sapiens, UniProt P35968)
T9 construct: purchased Carna Biosciences
Method: as §1

LCK = LCK (Homo sapiens, UniProt P06239)
Method: as §1

LYNa = LYNa (Homo sapiens, UniProt P07948)
Method: as §1

MINK = target: T10, MINK (Homo sapiens, UniProt Q8N4C8)
T10 construct: purchased Carna Biosciences
Method: as §1

NEK6 = target: T11, NEK6 (Homo sapiens, UniProt Q9HC98)
T11 construct: purchased Carna Biosciences
Method: as §1

PIM1 = PIM1 (Homo sapiens, UniProt P11309)
Method: as §1

PKACα = PKACα (Homo sapiens, UniProt P17612)
Method: as §1

PKCα = PKCα (Homo sapiens, UniProt P17252)
Method: as §1

QIK = QIK (Homo sapiens, UniProt Q9H0K1)
Chain of QIK (Q9H0K1 whole entry): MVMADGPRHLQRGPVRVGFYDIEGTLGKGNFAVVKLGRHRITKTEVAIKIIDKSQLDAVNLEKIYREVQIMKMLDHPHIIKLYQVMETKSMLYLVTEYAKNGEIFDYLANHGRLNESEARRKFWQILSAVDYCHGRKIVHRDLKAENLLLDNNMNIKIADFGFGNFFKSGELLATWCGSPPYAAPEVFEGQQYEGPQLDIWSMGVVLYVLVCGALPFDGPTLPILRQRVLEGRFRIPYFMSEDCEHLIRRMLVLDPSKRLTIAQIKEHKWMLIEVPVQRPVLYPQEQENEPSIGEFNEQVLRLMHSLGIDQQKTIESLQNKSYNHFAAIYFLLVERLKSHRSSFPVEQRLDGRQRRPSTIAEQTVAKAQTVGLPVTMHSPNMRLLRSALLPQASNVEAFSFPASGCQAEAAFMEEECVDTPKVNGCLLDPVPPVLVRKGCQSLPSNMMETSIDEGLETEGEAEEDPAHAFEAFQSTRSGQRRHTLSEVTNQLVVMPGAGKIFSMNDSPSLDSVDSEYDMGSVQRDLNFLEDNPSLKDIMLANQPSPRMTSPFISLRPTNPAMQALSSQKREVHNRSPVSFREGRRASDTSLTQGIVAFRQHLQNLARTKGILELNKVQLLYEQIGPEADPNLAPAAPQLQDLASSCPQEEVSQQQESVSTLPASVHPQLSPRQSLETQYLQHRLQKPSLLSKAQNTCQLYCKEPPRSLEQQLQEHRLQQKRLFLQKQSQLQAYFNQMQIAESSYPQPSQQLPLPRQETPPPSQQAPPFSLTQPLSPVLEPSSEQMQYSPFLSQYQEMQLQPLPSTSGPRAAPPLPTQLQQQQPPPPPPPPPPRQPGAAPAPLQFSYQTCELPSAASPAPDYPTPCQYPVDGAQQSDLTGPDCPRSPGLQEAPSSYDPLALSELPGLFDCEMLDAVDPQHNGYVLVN
Method: as §1

RET = target: T12, RET (Homo sapiens, UniProt P07949)
T12 construct: purchased Carna Biosciences
T12 sequence (P07949 29-1114): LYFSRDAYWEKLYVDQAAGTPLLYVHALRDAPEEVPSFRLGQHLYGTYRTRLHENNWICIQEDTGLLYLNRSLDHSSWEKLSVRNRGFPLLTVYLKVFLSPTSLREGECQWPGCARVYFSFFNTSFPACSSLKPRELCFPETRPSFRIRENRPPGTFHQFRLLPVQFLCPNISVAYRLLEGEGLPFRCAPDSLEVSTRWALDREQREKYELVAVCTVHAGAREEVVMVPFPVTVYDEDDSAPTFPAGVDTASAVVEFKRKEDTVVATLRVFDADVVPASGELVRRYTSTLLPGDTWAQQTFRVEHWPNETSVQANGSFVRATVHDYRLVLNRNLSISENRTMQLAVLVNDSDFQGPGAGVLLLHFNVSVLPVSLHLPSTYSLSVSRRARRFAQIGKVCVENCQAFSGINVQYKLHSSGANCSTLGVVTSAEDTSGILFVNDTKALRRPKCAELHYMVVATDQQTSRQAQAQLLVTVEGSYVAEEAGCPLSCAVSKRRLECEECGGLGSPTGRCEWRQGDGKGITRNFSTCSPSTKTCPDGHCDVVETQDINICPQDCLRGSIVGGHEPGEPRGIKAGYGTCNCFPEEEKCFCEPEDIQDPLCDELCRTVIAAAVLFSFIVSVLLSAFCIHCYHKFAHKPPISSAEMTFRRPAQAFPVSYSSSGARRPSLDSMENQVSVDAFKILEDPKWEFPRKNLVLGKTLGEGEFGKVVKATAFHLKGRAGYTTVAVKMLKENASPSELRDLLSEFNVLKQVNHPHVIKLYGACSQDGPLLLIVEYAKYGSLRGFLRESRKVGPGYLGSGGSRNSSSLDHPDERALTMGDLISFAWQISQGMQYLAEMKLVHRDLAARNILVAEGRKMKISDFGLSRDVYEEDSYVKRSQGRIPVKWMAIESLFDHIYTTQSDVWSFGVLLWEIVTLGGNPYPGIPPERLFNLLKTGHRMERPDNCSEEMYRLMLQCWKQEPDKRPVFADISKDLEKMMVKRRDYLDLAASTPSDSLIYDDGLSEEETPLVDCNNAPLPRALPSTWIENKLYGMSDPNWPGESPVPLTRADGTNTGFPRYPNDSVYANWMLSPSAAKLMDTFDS
Method: as §1

RET(M918T) = target: T13, RET(M918T) (Homo sapiens, UniProt P07949, M918T)
T13 construct: purchased Carna Biosciences
T13 sequence (P07949 29-1114 M918T): as the sequence (P07949 29-1114) above, with M890T counted along it
Method: as §1

RON = target: T14, RON (Homo sapiens, UniProt Q04912)
T14 construct: purchased Carna Biosciences
Method: as §1

RSK1 = target: T15, RSK1 (Homo sapiens, UniProt Q15418)
T15 construct: purchased Carna Biosciences
Method: as §1

SIK = target: T16, SIK (Homo sapiens, UniProt P57059)
T16 construct: purchased Carna Biosciences
Method: as §1

TNIK = target: T17, TNIK (Homo sapiens, UniProt Q9UKE5)
T17 construct: purchased Carna Biosciences
Method: as §1

p38β = p38β (Homo sapiens, UniProt Q15759)
Method: as §1

## C[C@@H](N)COc1ccc(-c2cnc3ccc(N[C@H](C)c4cccc(F)c4)nn23)cc1.O=C(O)CCCCC(=O)O [DS-6051b]
ARG
  inhibition at 0.2 µM: -0.122%
AXL
  inhibition at 0.2 µM: 18%
AurA
  inhibition at 0.2 µM: -15.7%
CDK2/CycA2
  inhibition at 0.2 µM: 2.3%
CDK4/CycD3
  inhibition at 0.2 µM: -0.7%
CDK6/CycD3
  inhibition at 0.2 µM: 2.1%
CDK7/CycH/MAT1
  inhibition at 0.2 µM: -0.3%
CHK1
  inhibition at 0.2 µM: -1.2%
CK1ε
  inhibition at 0.2 µM: -8.9%
CK2α1/β
  inhibition at 0.2 µM: -12.2%
CLK2
  inhibition at 0.2 µM: -1.1%
DYRK1B
  inhibition at 0.2 µM: -8.2%
EGFR(T790M/L858R)
  inhibition at 0.2 µM: 4%
EGFR(d746-750)
  inhibition at 0.2 µM: -3.4%
EPHA3
  inhibition at 0.2 µM: 2.8%
EPHA5
  inhibition at 0.2 µM: -9%
Erk1
  inhibition at 0.2 µM: -4.9%
FER
  inhibition at 0.2 µM: 5.5%
FGFR1
  inhibition at 0.2 µM: 3.4%
FGFR2
  inhibition at 0.2 µM: 4.8%
FLT3
  inhibition at 0.2 µM: 18.8%
GSK3α
  inhibition at 0.2 µM: -3.4%
HCK
  inhibition at 0.2 µM: -6%
IGF1R
  inhibition at 0.2 µM: 3.4%
JAK1
  inhibition at 0.2 µM: -2%
JNK2
  inhibition at 0.2 µM: -5.1%
KDR
  inhibition at 0.2 µM: -5.4%
LCK
  inhibition at 0.2 µM: 0.27%
LYNa
  inhibition at 0.2 µM: 3.1%
MINK
  inhibition at 0.2 µM: -2.2%
NEK6
  inhibition at 0.2 µM: -0.6%
PIM1
  inhibition at 0.2 µM: -3.6%
PKACα
  inhibition at 0.2 µM: -7%
PKCα
  inhibition at 0.2 µM: 2%
QIK
  inhibition at 0.2 µM: -3.9%
RET
  inhibition at 0.2 µM: 0.6%
RET(M918T)
  inhibition at 0.2 µM: 0.9%
RON
  inhibition at 0.2 µM: 9.2%
RSK1
  inhibition at 0.2 µM: 2.1%
SIK
  inhibition at 0.2 µM: 8.9%
TNIK
  inhibition at 0.2 µM: -3%
p38β
  inhibition at 0.2 µM: 0.7%
